Experimental data from PMC3328449, “Inhibition of Diacylglycerol–Sensitive TRPC Channels by Synthetic and Natural Steroids” (PLoS ONE, 2012).

Key:
A7r5 cells = experiment: Fura-2 measurement of AVP-induced Ca2+ release in A7r5 cells; assay type: cell-based; details: 10 µM, 5 min pre-incubation, calcium-free solution, 100 nM AVP
Procedure: A7r5 cells (ATCC, Rockville, USA) were maintained in DMEM (with glutaMAX I, 4.5 g/l glucose and […] sodium pyruvate), supplemented with 10% (v/v) fetal bovine serum (PAA, Pasching, Austria). Cells grown on poly-L-lysine-coated 24-mm glass coverslips were loaded in cell culture medium supplemented with 2 µM fura-2 AM (30 min, 37°C) and subsequently allowed to de-esterify in standard extracellular solution (15 min, 37°C). Changes in [Ca^2+]i were measured using a monochromator-based imaging system (T.I.L.L. Photonics, Gräfelfing, Germany) mounted on an inverted Axiovert 200 microscope (Zeiss, Göttingen, Germany). Fluorescence was excited alternating at 340 nm and 380 nm, long-pass filtered at 440 nm and captured at 2 s intervals. The 340/380 nm excitation ratio of selected cell areas was calculated with T.I.L.L. vision 4.0 software (T.I.L.L. Photonics) after correction for background fluorescence.

[1] = Solubility in perfusate (remark); assay type: physicochemical; details: aortic ring experiments; higher concentrations could not be tested
mTRPC5 = biological target: T1, mTRPC5 (Mus musculus, UniProt Q9QX29); experiment: Trypsin-induced Ca2+ entry, fluo-4 fluorometric imaging plate reader, TRPC5 HEK-FITR cells; assay type: cell-based
T1 construct: expressed in transfected cells
T1 sequence (Q9QX29 1-975): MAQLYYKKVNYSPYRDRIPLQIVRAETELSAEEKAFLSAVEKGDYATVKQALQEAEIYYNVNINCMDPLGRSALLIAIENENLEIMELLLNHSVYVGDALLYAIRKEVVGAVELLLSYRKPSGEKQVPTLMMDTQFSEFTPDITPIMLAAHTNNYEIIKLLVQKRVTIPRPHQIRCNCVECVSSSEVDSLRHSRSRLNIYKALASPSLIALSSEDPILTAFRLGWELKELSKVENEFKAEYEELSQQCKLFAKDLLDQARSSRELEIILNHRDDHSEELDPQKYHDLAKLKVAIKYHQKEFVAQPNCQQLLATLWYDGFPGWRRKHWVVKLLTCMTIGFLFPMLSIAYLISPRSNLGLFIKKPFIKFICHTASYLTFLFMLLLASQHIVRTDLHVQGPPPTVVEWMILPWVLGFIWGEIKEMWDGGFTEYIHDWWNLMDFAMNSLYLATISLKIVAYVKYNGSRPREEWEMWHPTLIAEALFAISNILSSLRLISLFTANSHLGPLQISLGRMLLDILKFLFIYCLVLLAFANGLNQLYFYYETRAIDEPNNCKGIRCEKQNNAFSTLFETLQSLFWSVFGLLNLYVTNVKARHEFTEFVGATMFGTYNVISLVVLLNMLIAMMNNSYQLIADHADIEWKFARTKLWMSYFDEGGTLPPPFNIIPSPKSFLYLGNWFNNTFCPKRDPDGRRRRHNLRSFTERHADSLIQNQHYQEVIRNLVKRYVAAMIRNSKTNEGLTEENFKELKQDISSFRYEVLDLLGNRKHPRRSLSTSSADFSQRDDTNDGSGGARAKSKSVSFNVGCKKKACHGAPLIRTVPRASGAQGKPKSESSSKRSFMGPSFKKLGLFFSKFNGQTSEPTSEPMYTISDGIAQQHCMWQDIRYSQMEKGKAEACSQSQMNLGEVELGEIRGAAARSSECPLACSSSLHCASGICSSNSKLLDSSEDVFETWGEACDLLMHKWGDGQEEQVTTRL
Procedure: Cells were grown at 37°C in a humidified atmosphere (5% or 7% CO2) under standard cell culture conditions. Stable human embryonic kidney (HEK) cell lines expressing recombinant mTRPC4ß (GenBank accession number AAC05178); mTRPC5 (GenBank accession number NM_009428) or hTRPC6 (GenBank accession number AF080394) under the control of a tetracycline-inducible promoter were generated using the Flp-In T-Rex (FITR) system (Invitrogen, Karlsruhe, Germany). […]
Cells grown to an almost confluent monolayer on black poly-D-lysine coated 96-well plates (Greiner, Frickenhausen, Germany) were washed with standard extracellular solution (140 mM NaCl, 1 mM MgCl2, 5.4 mM KCl, 2 mM CaCl2, 10 mM HEPES, 10 mM glucose, pH 7.35) and stained (30 min, room temperature) with dye solution (2 µM fluo-4 AM, 0.02% pluronic F127, 0.1% bovine serum albumin in standard extracellular solution). […] Fluo-4 fluorescence was excited at 488 nm with an argon laser and measured using a fluorometric imaging plate reader (Molecular Devices, Sunnyvale, USA). […]
TRPC4- and TRPC5-mediated Ca^2+ influx was stimulated by application of trypsin that activates endogenous Gq-coupled protease activated receptors in HEK cells. […] Compound effects were then calculated from the area under the curve and normalized to the Ca^2+ influx into trypsin-stimulated, non-compound-treated cells. […]

Solubility [1] | IC50 (mTRPC5; TRPC5 HEK-FITR cells, fluo-4, 200 nM trypsin, read-out: IC50, inhibition of trypsin-induced Ca2+ entry via TRPC5) [µM] | Hill slope n, inhibition of TRPC5-mediated Ca2+ entry (mTRPC5; fit to Hill model) | Compound | Sensitivity of AVP-induced Ca2+ release (A7r5 cells)
limited solubility | – | – | C#C[C@]1(OC(C)=O)CC[C@H]2[C@@H]3CCC4=CC(=NO)CC[C@@H]4[C@H]3CC[C@@]21CC (mixture of isomers) [norgestimate] | not sensitive
– | 11.8 | 2.5 | CC(=O)[C@H]1CC[C@H]2[C@@H]3CCC4=CC(=O)CC[C@]4(C)[C@H]3CC[C@]12C [progesterone] | –
